Reference: patent US8343934B2, “Diverse lead compound autotaxin inhibitors” (University of Memphis, priority 2009, dated 2013)

Target: T1, ATX (Homo sapiens, UniProt Q13822)
T1 construct: conditioned serum-free medium (CCM) from MDA-MB-435 cells as the source of ATX; endogenous in cells; host or cells: MDA-MB-435 cells (about 10x concentrated conditioned serum-free medium)
Assay: ATX inhibition assay (FS-3 substrate)
Format: biochemical
Conditions: for IC50: Calculated IC50 data for the 30 active compounds, FS-3 substrate; for % Response: preliminary screen, FS-3 hydrolysis at one hour, normalized to vehicle control, mean±S.D., same values given at 10 μM in Table 5
Procedure: ATX inhibition was assayed using the substrate FS-3 (Echelon Biosciences, Inc., Salt Lake City, Utah, USA). The FS-3 assay used ˜10 times concentrated conditioned serum-free medium (CCM) from MDA-MB-435 cells as the source of ATX, while CCM comprised one-third of the total volume. The final volume for FS-3 was comprised of the substrate at varying concentrations and 30 μM charcoal-stripped fatty acid free BSA (Sigma Aldrich) in assay buffer (1 mM each CaCl2 and MgCl2, 5 mM KCl, 140 mM NaCl, 50 mM Tris pH 8.0).
All assays were performed in 96-well plates with data read at 1 minute intervals by a Synergy2 system (BioTek, Winooski, Vt.). The fluorescence produced upon the hydrolysis of FS-3 was monitored using an excitation wavelength of 485 nm and an emission wavelength of 528 nm at 37° C. (Ferguson et al., 2006). […] All readings were normalized to vehicle control after subtraction of fluorescence in the absence of CCM. Data are shown as the mean±S.D. of at least three wells.

SMILES	IC50	% Response
Cc1ccc(N=Nc2c(S(=O)(=O)[O-])cc3cc(NC(=O)Nc4ccc5c(O)c(N=Nc6ccc7cc(S(=O)(=O)[O-])ccc7c6)c(S(=O)(=O)[O-])cc5c4)ccc3c2O)c(C)c1.[Na+].[Na+].[Na+] [compound 65575]	18.6 µM	33 ± 3.7%
Cc1ccc(C)c(N=Nc2c(S(=O)(=O)O)cc3cc(NC(=O)Nc4ccc5c(O)c(N=Nc6ccc7cc(S(=O)(=O)O)ccc7c6)c(S(=O)(=O)O)cc5c4)ccc3c2O)c1.[Na+] [compound 65576]	15.5 µM	35 ± 5.8%
COc1ccccc1N=Nc1c(S(=O)(=O)O)cc2cc(S(=O)(=O)O)c(N=Nc3ccc([N+](=O)[O-])cc3)c(N)c2c1O.[Na+] [compound 65829]		71 ± 4.0%
Cc1ccccc1N=Nc1ccc(N=Nc2c(S(=O)(=O)O)cc3cc(S(=O)(=O)O)c(N=Nc4ccc([N+](=O)[O-])cc4)c(N)c3c2O)c(C)c1.[Na+] [compound 65836]		71 ± 4.6%
Nc1ccc(N=Nc2ccc(-c3ccc(N=Nc4c(S(=O)(=O)O)cc5cc(S(=O)(=O)O)c(N=Nc6ccc([N+](=O)[O-])cc6)c(N)c5c4O)cc3)cc2)c(N)c1.[Na+] [compound 65848]	15.2 µM	48 ± 4.8%
Cc1cc(N)ccc1N=Nc1ccc(-c2ccc(N=Nc3c(S(=O)(=O)O)cc4cc(S(=O)(=O)O)c(N=Nc5ccc([N+](=O)[O-])cc5)c(N)c4c3O)cc2)cc1.[Na+] [compound 65851]	9.5 µM	42 ± 3.5%
Nc1ccc2cc(S(=O)(=O)O)cc(O)c2c1N=Nc1ccc(-c2ccc(N=Nc3c(S(=O)(=O)O)cc4cc(S(=O)(=O)O)c(N=Nc5ccc([N+](=O)[O-])cc5)c(N)c4c3O)cc2)cc1 [compound 65855]	17.4 µM	43 ± 3.8%
O=C(Nc1ccc(Sc2ccc(N=Nc3c(O)c(S(=O)(=O)O)cc4cc(S(=O)(=O)O)ccc34)cc2)cc1)c1ccc(N=Nc2c(O)c(S(=O)(=O)O)cc3cc(S(=O)(=O)O)ccc23)cc1 [compound 65860]		66 ± 4.4%
Nc1c(N=Nc2ccc([N+](=O)[O-])cc2)c(S(=O)(=O)O)cc2cc(S(=O)(=O)O)c(N=Nc3ccc(-c4ccc(N=Nc5c(S(=O)(=O)O)cc6cc(S(=O)(=O)O)c(N=Nc7ccc([N+](=O)[O-])cc7)c(N)c6c5O)cc4)cc3)c(O)c12.[Na+] [compound 65869]	22.7 µM	46 ± 6.7%

Next, values leading:

IC50	% Response	SMILES
	88 ± 5.3%	Nc1ccc(C(=O)Nc2ccc(NC(=O)Nc3ccc(NC(=O)c4ccc(N)cc4)c(S(=O)(=O)O)c3)cc2S(=O)(=O)O)cc1.[Na+] [compound 71960]
1.26 µM	20 ± 5.7%	Nc1ccc2cc(S(=O)(=O)[O-])c(N=Nc3ccc(-c4ccc(N=Nc5c(S(=O)(=O)[O-])cc6cc(S(=O)(=O)[O-])cc(N)c6c5O)cc4)cc3)c(O)c2c1.[Na+].[Na+].[Na+] [compound 75779]
	51 ± 4.4%	Cc1[nH]n(-c2cc(S(=O)(=O)O)ccc2Cl)c(=O)c1N=Nc1c(NC(=O)c2ccc(N)cc2)ccc2cc(S(=O)(=O)O)ccc12.[Na+] [compound 75963]
4.07 µM	32 ± 2.7%	Nc1ccc(N=Nc2ccc(-c3ccc(N=Nc4c(S(=O)(=O)O)cc5cc(S(=O)(=O)O)c(N=Nc6ccc([N+](=O)[O-])cc6)c(N)c5c4O)cc3)cc2)c2cc(S(=O)(=O)O)ccc12.Nc1ccc(N=Nc2ccc(-c3ccc(N=Nc4c(S(=O)(=O)O)cc5cc(S(=O)(=O)O)c(N=Nc6ccc([N+](=O)[O-])cc6)c(N)c5c4O)cc3)cc2)c2ccc(S(=O)(=O)O)cc12 [compound 77520]
6.36 µM	37 ± 2.6%	Nc1ccc(N=Nc2ccc(-c3ccc(N=Nc4c(S(=O)(=O)O)cc5cc(S(=O)(=O)O)c(N=Nc6cccc([N+](=O)[O-])c6)c(N)c5c4O)cc3)cc2)c(N)c1.[Na+] [compound 79593]
	83 ± 3.2%	Nc1c(N=Nc2ccc([N+](=O)[O-])cc2)c(S(=O)(=O)O)cc2cc(S(=O)(=O)O)c(N=Nc3ccc(Sc4ccc(N=Nc5ccc(O)cc5)cc4)cc3)c(O)c12.[Na+] [compound 79723]
